Results as given in ChEMBL document CHEMBL1201862, “PubChem BioAssay data set” (2004).
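Five concentrations, 48 hours, 96-well plates. GI50: concentration for 50% inhibition of growth.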 The source made the active and inactive calls. Cut-off read from the data, not from the text of the source: active = GI50 up to about 1.1 µM and inactive = higher.

Tests used:
Assay in all cases: inhibition of tumour cell growth, NCI panel, 48 h
786-0 = tested on: 786-0
A498 = tested on: A498
A549 = tested on: A549
ACHN = tested on: ACHN
BT-549 = tested on: BT-549
CAKI-1 = tested on: CAKI-1
CCRF-CEM = tested on: CCRF-CEM
COLO 205 = tested on: COLO 205
DU-145 = tested on: DU-145
EKVX = tested on: EKVX
HCC 2998 = tested on: HCC 2998
HCT-116 = tested on: HCT-116
HCT-15 = tested on: HCT-15
HL-60 = tested on: HL-60
HOP-62 = tested on: HOP-62
HOP-92 = tested on: HOP-92
HT-29 = tested on: HT-29
Hs-578T = tested on: Hs-578T
IGROV-1 = tested on: IGROV-1
K562 = tested on: K562
KM12 = tested on: KM12
LOX IMVI = tested on: LOX IMVI
M14 = tested on: M14
MCF7 = tested on: MCF7
MDA-MB-231 = tested on: MDA-MB-231
MDA-MB-435 = tested on: MDA-MB-435
MDA-N = tested on: MDA-N
MOLT-4 = tested on: MOLT-4
Malme-3M = tested on: Malme-3M
NCI-H226 = tested on: NCI-H226
NCI-H23 = tested on: NCI-H23
NCI-H460 = tested on: NCI-H460
NCI-H522 = tested on: NCI-H522
NCI/ADR-RES = tested on: NCI/ADR-RES
OVCAR-3 = tested on: OVCAR-3
OVCAR-4 = tested on: OVCAR-4
OVCAR-5 = tested on: OVCAR-5
OVCAR-8 = tested on: OVCAR-8
PC-3 = tested on: PC-3
RPMI-8226 = tested on: RPMI-8226
RXF 393 = tested on: RXF 393
SF-268 = tested on: SF-268
SF-295 = tested on: SF-295
SF-539 = tested on: SF-539
SK-MEL-28 = tested on: SK-MEL-28
SK-MEL-2 = tested on: SK-MEL-2
SK-MEL-5 = tested on: SK-MEL-5
SK-OV-3 = tested on: SK-OV-3
SN12C = tested on: SN12C
SNB-19 = tested on: SNB-19
SNB-75 = tested on: SNB-75
SR = tested on: SR
SW-620 = tested on: SW-620
T47D = tested on: T47D
TK-10 = tested on: TK-10
U-251 = tested on: U-251
UACC-257 = tested on: UACC-257
UACC-62 = tested on: UACC-62
UO-31 = tested on: UO-31

For `c1cc(-c2ccc(Oc3ccc(-c4ccncc4)cc3)cc2)ccn1`, the GI50 (786-0) was 6.81 µM (inactive), the GI50 (A498) was 6.76 µM (inactive) and the GI50 (A549) was 4.91 µM (inactive). For the same compound, the GI50 (ACHN) was 9.48 µM (inactive), the GI50 (BT-549) was 5.07 µM (inactive) and the GI50 (CAKI-1) was 3.22 µM (inactive). For the same compound, the GI50 (CCRF-CEM) was 4.73 µM (inactive), the GI50 (COLO 205) was 3.56 µM (inactive) and the GI50 (DU-145) was 11.4 µM (inactive). For the same compound, the GI50 (EKVX) was 5.53 µM (inactive), the GI50 (HCC 2998) was 5 µM (inactive) and the GI50 (HCT-116) was 4.24 µM (inactive). For the same compound, the GI50 (HCT-15) was 3.43 µM, the GI50 (HL-60) was 2.18 µM (inactive) and the GI50 (HOP-62) was 23.6 µM (inactive). The GI50 (HOP-92) was 14.1 µM (inactive), the GI50 (HT-29) was 3.7 µM (inactive) and the GI50 (Hs-578T) was 12.8 µM (inactive). The GI50 (IGROV-1) was 7.4 µM (inactive), the GI50 (K562) was 2.5 µM (inactive) and the GI50 (KM12) was 5.22 µM (inactive). For the same compound, the GI50 (LOX IMVI) was 9.18 µM (inactive), the GI50 (M14) was 4.76 µM (inactive) and the GI50 (MCF7) was 4.26 µM (inactive). The GI50 (MDA-MB-231) was 18.3 µM (inactive), the GI50 (MDA-MB-435) was 1.85 µM (inactive) and the GI50 (MDA-N) was 2.39 µM (inactive). The GI50 (MOLT-4) was 2.99 µM (inactive), the GI50 (Malme-3M) was 6.82 µM (inactive) and the GI50 (NCI-H226) was 27.6 µM (inactive). The GI50 (NCI-H23) was 3.18 µM (inactive), the GI50 (NCI-H460) was 3.93 µM (inactive) and the GI50 (NCI-H522) was 6.12 µM (inactive). The GI50 (NCI/ADR-RES) was 3.01 µM (inactive), the GI50 (OVCAR-3) was 6.14 µM (inactive) and the GI50 (OVCAR-4) was 5.47 µM (inactive). For the same compound, the GI50 (OVCAR-5) was 29.2 µM (inactive), the GI50 (OVCAR-8) was 9.55 µM (inactive) and the GI50 (PC-3) was 27 µM (inactive). For the same compound, the GI50 (RPMI-8226) was 1.67 µM (inactive), the GI50 (RXF 393) was 25.6 µM (inactive) and the GI50 (SF-268) was 22.6 µM (inactive). The GI50 (SF-295) was 5.96 µM (inactive), the GI50 (SF-539) was 5.4 µM (inactive) and the GI50 (SK-MEL-28) was > 26.7 µM (inactive). For the same compound, the GI50 (SK-MEL-2) was 5.38 µM (inactive), the GI50 (SK-MEL-5) was 2.2 µM (inactive) and the GI50 (SK-OV-3) was 15.3 µM (inactive). For the same compound, the GI50 (SN12C) was 23.3 µM (inactive), the GI50 (SNB-19) was 6.25 µM (inactive) and the GI50 (SNB-75) was 15.9 µM (inactive). For the same compound, the GI50 (SR) was 3.15 µM (inactive), the GI50 (SW-620) was 4.37 µM (inactive) and the GI50 (T47D) was 5.13 µM (inactive). For the same compound, the GI50 (TK-10) was 7.18 µM (inactive), the GI50 (U-251) was 4.01 µM (inactive) and the GI50 (UACC-257) was 4.91 µM (inactive). The GI50 (UACC-62) was 7.18 µM (inactive) and the GI50 (UO-31) was 7.21 µM (inactive).
In the case of `O=C(O)c1cc2c(cc1S(=O)(=O)O)C1C(C3C2C2(Cl)C(Cl)=C(Cl)C3(Cl)C2(Cl)Cl)C2(Cl)C(Cl)=C(Cl)C1(Cl)C2(Cl)Cl` (centres undefined), the GI50 (786-0) is reported as 39.8 µM (inactive), the GI50 (A498) is reported as 97.1 µM (inactive) and the GI50 (A549) is reported as 72.9 µM (inactive). For the same compound, the GI50 (ACHN) was > 100 µM (inactive), the GI50 (BT-549) was 67 µM (inactive) and the GI50 (CAKI-1) was > 100 µM (inactive). For the same compound, the GI50 (CCRF-CEM) was 0.173 µM (active), the GI50 (COLO 205) was 44.1 µM (inactive) and the GI50 (DU-145) was 48.1 µM (inactive). The GI50 (EKVX) was 30.2 µM (inactive), the GI50 (HCC 2998) was 20.8 µM (inactive) and the GI50 (HCT-116) was 17.4 µM (inactive). For the same compound, the GI50 (HCT-15) was 45 µM, the GI50 (HL-60) was 2.43 µM (inactive) and the GI50 (HOP-62) was 26.2 µM (inactive). For the same compound, the GI50 (HOP-92) was 29.2 µM (inactive), the GI50 (HT-29) was 21.8 µM (inactive) and the GI50 (Hs-578T) was 45.2 µM (inactive). For the same compound, the GI50 (IGROV-1) was 50.4 µM (inactive), the GI50 (K562) was 34.3 µM (inactive) and the GI50 (KM12) was 51.4 µM (inactive). For the same compound, the GI50 (M14) was 37.3 µM (inactive), the GI50 (MCF7) was 34.8 µM (inactive) and the GI50 (MDA-MB-231) was 24.4 µM (inactive). The GI50 (MDA-MB-435) was 41.9 µM (inactive), the GI50 (MDA-N) was 31.4 µM (inactive) and the GI50 (MOLT-4) was 27.6 µM (inactive). The GI50 (Malme-3M) was 64.7 µM (inactive), the GI50 (NCI-H226) was 23.4 µM (inactive) and the GI50 (NCI-H23) was 26.4 µM (inactive). The GI50 (NCI-H460) was 34.6 µM (inactive), the GI50 (NCI-H522) was 17.7 µM (inactive) and the GI50 (NCI/ADR-RES) was > 100 µM (inactive). For the same compound, the GI50 (OVCAR-3) was 22.9 µM (inactive), the GI50 (OVCAR-4) was 38.7 µM (inactive) and the GI50 (OVCAR-5) was 23.3 µM (inactive). For the same compound, the GI50 (OVCAR-8) was 54.7 µM (inactive), the GI50 (PC-3) was 41 µM (inactive) and the GI50 (RPMI-8226) was 32.6 µM (inactive). The GI50 (RXF 393) was 29.2 µM (inactive), the GI50 (SF-268) was 58.7 µM (inactive) and the GI50 (SF-295) was 23.2 µM (inactive). The GI50 (SF-539) was 25.4 µM (inactive), the GI50 (SK-MEL-28) was 37.1 µM (inactive) and the GI50 (SK-MEL-2) was 27 µM (inactive). The GI50 (SK-MEL-5) was 34.7 µM (inactive), the GI50 (SK-OV-3) was 39.9 µM (inactive) and the GI50 (SN12C) was 8.71 µM (inactive). For the same compound, the GI50 (SNB-19) was 47.4 µM (inactive), the GI50 (SNB-75) was 47.6 µM (inactive) and the GI50 (SR) was 24.7 µM (inactive). The GI50 (SW-620) was 37.2 µM (inactive), the GI50 (T47D) was 33.2 µM (inactive) and the GI50 (TK-10) was > 100 µM (inactive). The GI50 (U-251) was 38.3 µM (inactive), the GI50 (UACC-257) was 90.2 µM (inactive) and the GI50 (UACC-62) was 21.9 µM (inactive). For the same compound, the GI50 (UO-31) was 44.6 µM (inactive).
With `C/C=C/C(C#N)(Cc1ccccc1)OP1(=O)OC(c2ccccc2)C(C)N1C` (centres undefined) the GI50 (786-0) was > 100 µM (inactive), the GI50 (A498) was 69.3 µM (inactive) and the GI50 (A549) was 66.4 µM (inactive). The GI50 (ACHN) was 84.1 µM (inactive), the GI50 (BT-549) was 90.2 µM (inactive) and the GI50 (CAKI-1) was > 100 µM (inactive). For the same compound, the GI50 (CCRF-CEM) was 19.4 µM (inactive), the GI50 (COLO 205) was > 100 µM (inactive) and the GI50 (DU-145) was > 100 µM (inactive). The GI50 (EKVX) was 71.6 µM (inactive), the GI50 (HCC 2998) was 81.3 µM (inactive) and the GI50 (HCT-116) was > 100 µM (inactive). For the same compound, the GI50 (HCT-15) was 79.6 µM, the GI50 (HL-60) was 17 µM (inactive) and the GI50 (HOP-62) was > 100 µM (inactive). The GI50 (HOP-92) was 73.3 µM (inactive), the GI50 (HT-29) was 69.2 µM (inactive) and the GI50 (Hs-578T) was 89.5 µM (inactive). For the same compound, the GI50 (IGROV-1) was 95.3 µM (inactive), the GI50 (K562) was 38.5 µM (inactive) and the GI50 (KM12) was 45.6 µM (inactive). The GI50 (LOX IMVI) was 44.1 µM (inactive), the GI50 (M14) was > 100 µM (inactive) and the GI50 (MCF7) was 54.2 µM (inactive). For the same compound, the GI50 (MDA-MB-231) was > 100 µM (inactive), the GI50 (MDA-MB-435) was 48.4 µM (inactive) and the GI50 (MDA-N) was 88.1 µM (inactive). For the same compound, the GI50 (MOLT-4) was 21.2 µM (inactive), the GI50 (Malme-3M) was > 100 µM (inactive) and the GI50 (NCI-H23) was 87.3 µM (inactive). The GI50 (NCI-H460) was 43.6 µM (inactive), the GI50 (NCI-H522) was 50.1 µM (inactive) and the GI50 (NCI/ADR-RES) was 72.4 µM (inactive). For the same compound, the GI50 (OVCAR-3) was 56.8 µM (inactive), the GI50 (OVCAR-5) was > 100 µM (inactive) and the GI50 (OVCAR-8) was 86.7 µM (inactive). For the same compound, the GI50 (PC-3) was 58.6 µM (inactive), the GI50 (RPMI-8226) was 33 µM (inactive) and the GI50 (RXF 393) was > 100 µM (inactive). For the same compound, the GI50 (SF-268) was > 100 µM (inactive), the GI50 (SF-295) was 49.1 µM (inactive) and the GI50 (SF-539) was > 100 µM (inactive). The GI50 (SK-MEL-28) was > 100 µM (inactive), the GI50 (SK-MEL-2) was > 100 µM (inactive) and the GI50 (SK-MEL-5) was 48.9 µM (inactive). For the same compound, the GI50 (SK-OV-3) was > 100 µM (inactive), the GI50 (SN12C) was 81.7 µM (inactive) and the GI50 (SNB-19) was 78.5 µM (inactive). For the same compound, the GI50 (SNB-75) was > 100 µM (inactive), the GI50 (SR) was 36 µM (inactive) and the GI50 (SW-620) was > 100 µM (inactive). For the same compound, the GI50 (T47D) was 47.9 µM (inactive), the GI50 (TK-10) was > 100 µM (inactive) and the GI50 (U-251) was 88.5 µM (inactive). For the same compound, the GI50 (UACC-257) was 65.8 µM (inactive), the GI50 (UACC-62) was 56.5 µM (inactive) and the GI50 (UO-31) was 55.3 µM (inactive).
